In patent publication EP4674425A1, “COMPOSITION FOR TREATING DIABETIC RETINOPATHY, COMPRISING PEPTIDE” (EyebioKorea, Inc., priority 2023, dated 2026):
Non-standard residues stand in square brackets, D forms with d. No end group written: not given here. Hyp = O=C(O)[C@@H]1C[C@@H](O)CN1; Aib = CC(C)(N)C(=O)O

Experiments:
[1] = tested on: zebrafish retinal blood vessels; assay: Inhibition of retinal vasodilation in zebrafish diabetic retinopathy model (fluorescence microscopy); type: in vivo, zebrafish Tg[flk:EGFP]; settings: Figures 12 and 13
Experimental: Among the embryos obtained by mating adult zebrafish Tg[flk:EGFP], embryos expressing a fluorescent protein were selected and used. On the 6th day after fertilization, the embryos were treated with glucose and the peptide of the present invention (002-175) for 4 days, and then euthanized by adding 4 mg/ml of Tricane. After fixing with 4% paraformaldehyde for 3 days, the eyeballs were separated using 3% trypsin, and the changes in the blood vessels in the separated eyeballs were observed using a fluorescence microscope.

[2] = tested on: NF-kB; assay: Gene expression by microarray in zebrafish diabetic retinopathy model; type: in vivo, zebrafish Tg[flk:EGFP]; settings: eyeball RNA, 4 days treatment with glucose and peptide, Figure 14
Experimental: (§1) Among the embryos obtained by mating adult zebrafish Tg[flk:EGFP], embryos expressing a fluorescent protein were selected and used. On the 6th day after fertilization, the embryos were treated with glucose and the peptide of the present invention (002-175) for 4 days, and then euthanized by adding 4 mg/ml of Tricane. The eyeballs were extracted, and RNA was extracted and analyzed using microarray. In addition, Trizol was added to the extracted eyeballs, and the tissue was homogenized to extract mRNA. The extracted mRNA was quantified using a NanoDrop spectrophotometer, and cDNA was synthesized using RNA with a purity of 1.8 or higher. The synthesized cDNA was subjected to polymerization reaction of SYBR Green Master Mix, primers, and genes, and the concentration of each gene was divided by GAPDH to obtain the corrected concentration of the gene.

[3] = tested on: MMP9; assay: as above; type: in vivo, zebrafish Tg[flk:EGFP]; settings: eyeball RNA, 4 days treatment with glucose and peptide, Figure 14
Experimental: as §1

[4] = tested on: IL-1β; assay: as above; type: in vivo, zebrafish Tg[flk:EGFP]; settings: eyeball RNA, 4 days treatment with glucose and peptide, Figure 14
Experimental: as §1

[5] = tested on: ikkα; assay: Gene expression by real-time PCR in zebrafish diabetic retinopathy model; type: in vivo, zebrafish Tg[flk:EGFP]; settings: corrected by GAPDH, eyeball mRNA, Figure 15
Experimental: as §1

[6] = tested on: NF-kB; assay: as above; type: in vivo, zebrafish Tg[flk:EGFP]; settings: corrected by GAPDH, eyeball mRNA, Figure 15
Experimental: as §1

[7] = tested on: ikkγ; assay: as above; type: in vivo, zebrafish Tg[flk:EGFP]; settings: corrected by GAPDH, eyeball mRNA, Figure 15
Experimental: as §1

[8] = tested on: ikkβ; assay: as above; type: in vivo, zebrafish Tg[flk:EGFP]; settings: corrected by GAPDH, eyeball mRNA, Figure 15
Experimental: as §1

[9] = tested on: MMP9; assay: as above; type: in vivo, zebrafish Tg[flk:EGFP]; settings: corrected by GAPDH, eyeball mRNA, Figure 15
Experimental: as §1

[10] = tested on: IL-1β; assay: as above; type: in vivo, zebrafish Tg[flk:EGFP]; settings: corrected by GAPDH, eyeball mRNA, Figure 15
Experimental: as §1

[11] = tested on: Streptozotocin (STZ) induced diabetic retinopathy mouse model; assay: Electroretinography in streptozotocin induced diabetic retinopathy mouse model; type: in vivo, C57BL/6 mice; settings: electroretinogram (ERG); eye drops (ED) twice a day for about 17 weeks; versus STZ model group; comparator aflibercept; Figure 3
Experimental: The streptozotocin induced mouse model is a type 1 diabetes mellitus model that induces diabetes mellitus by injecting the antibiotic streptozotocin (STZ) into the mouse's peritoneum to damage the beta cells that produce insulin in the pancreas. It is one of the models used in diabetic retinopathy research, and it is a model that can confirm the early stage of diabetic retinopathy from the time of onset of diabetes mellitus.
After fasting for 3-4 hours before administration, 8-week-old C57BL/6 mice were administered with streptozotocin (STZ) dissolved in Na-citrate buffer and buffer at a dose of 50 mg/kg intraperitoneally for 5 days. The drug used at this time was prepared immediately before administration and used quickly. One week after the last STZ intraperitoneal administration, blood glucose was measured, and only mice with blood glucose exceeding 250 mg/dL were determined to be diabetic mice and used in the experiment. The drug was administered as eye drops (ED) twice a day for about 17 weeks starting from the day after model production, and 10 µg was administered intraocularly (intravitreal injection, IVT) once a month. […] The retina was stimulated with a single white light to obtain a response value, and the amplitude from the trough of the a wave to the peak of the b wave was measured, which was evaluated as an index of retinal function.

[12] = tested on: vascular endothelial growth factor (VEGF); assay: Western blot of retinal tissue, db/db mouse model; type: in vivo, db/db mice; settings: eye drops three times a day (TID) for about 12 weeks, versus db/db mouse group, Figure 8
Experimental: (§2) The drug was administered as eye drops (ED) to 12-week-old db/db mice twice a day (BID) or three times a day (TID) for about 12 weeks. In order to evaluate the expression level of proteins in the retina, retinal tissue was separated from the extracted mouse eyes and treated with RIPA solution to extract proteins in the retina. Western blot was performed to evaluate the expression level of factors related to neovascularization and vascular permeability in the retina.

[13] = tested on: Akt; assay: Western blot of retinal tissue, db/db mouse model; type: in vivo, db/db mice; settings: eye drops three times a day (TID) for about 12 weeks, versus db/db mouse group, Figure 9
Experimental: as §2

[14] = tested on: JNK; assay: Western blot of retinal tissue, db/db mouse model; type: in vivo, db/db mice; settings: eye drops BID or TID for about 12 weeks, versus db/db mouse group, Figure 11
Experimental: as §2

[15] = tested on: COX-2; assay: Western blot of retinal tissue, db/db mouse model; type: in vivo, db/db mice; settings: eye drops three times a day (TID) for about 12 weeks, versus db/db mouse group, Figure 10
Experimental: as §2

[16] = tested on: ZO-1; assay: Immunofluorescence (IF) staining of zebrafish eye, diabetic retinopathy model; type: in vivo; settings: tight junction protein; versus high glucose group; Figures 16 and 17
Experimental: (§3) On the 6th day after fertilization (6dpf, 6 days post-fertilization), zebrafish fry were fixed with 4% paraformaldehyde for 3-4 hours, and then treated with 30% sucrose, and treated overnight at 4°C. O.C.T blocks were made, and sections were performed, and then TUNEL staining and immunofluorescence (IF) staining were performed.

[17] = tested on: VEGF; assay: as above; type: in vivo; settings: outer nuclear layer (ONL) of the retina; versus high glucose group; Figures 16 and 17
Experimental: as §3

[18] = tested on: GFAP; assay: as above; type: in vivo; settings: outer nuclear layer (ONL) of the retina; versus high glucose group; Figures 16 and 17
Experimental: as §3

[19] = tested on: oxygen induced retinopathy (OIR) mouse model; assay: Inhibition of neovascularity in oxygen induced retinopathy mouse model (Isolectin B4 flat mount, fluorescence imaging); type: in vivo; settings: eye drops (ED) for 5 days from day 12 to day 16 after birth; versus OIR model group; positive control aflibercept IVT once on day 12; Figures 1 and 2
Experimental: In order to evaluate the efficacy of the peptide of the present invention in inhibiting neovascularity in an oxygen induced retinopathy (OIR) mouse model, an experiment was performed as follows.
After stabilizing the mice born with the mother (new born mice) for about 3 to 4 days, they were raised under 75% hyperoxic conditions for 5 days from day 7 to day 11 after birth. Thereafter, they were raised under normoxic conditions until day 17 after birth. Drugs were administered while they were raised under normoxic conditions. The peptide of the present invention (002-175) was administered as eye drops (ED) for 5 days from day 12 to day 16 after birth, and as a positive control group, aflibercept was administered intraocularly (intravitreal injection, IVT) once on day 12 after birth. Thereafter, the mouse eyes were extracted, fixed in 10% formalin for 1 hour, and then flat mounted. The retina was divided into four equal parts centered on the optic nerve, and treated with Isolectin B4 (1 mM CaCl2, 1:200) overnight (O/N). Thereafter, they were spread on a slide glass, sprayed with mounting solution, covered with a cover glass, and photographed under a fluorescence microscope. The fluorescence images of blood vessels in the retina were obtained, and the number and area of new blood vessels and the area of blood vessels were calculated using the imageJ program.

[20] = tested on: TUNEL positive cells in the inner nuclear layer (INL) of the retina; assay: TUNEL assay in retinal tissue, zebrafish diabetic retinopathy model; type: in vivo; settings: versus high glucose group, Figures 16 and 17
Experimental: as §3

[21] = tested on: vascular endothelial growth factor (VEGF); assay: Western blot of retinal tissue, STZ induced diabetic retinopathy mouse model; type: in vivo, C57BL/6 mice; settings: about 17 weeks of administration, versus STZ model group, Figure 7
Experimental: (§4) After fasting for 3-4 hours before administration, 8-week-old C57BL/6 mice were administered with streptozotocin (STZ) dissolved in Na-citrate buffer and buffer at a dose of 50 mg/kg intraperitoneally for 5 days. The drug used at this time was prepared immediately before administration and used quickly. One week after the last STZ intraperitoneal administration, blood glucose was measured, and only mice with blood glucose exceeding 250 mg/dL were determined to be diabetic mice and used in the experiment. The drug was administered as eye drops (ED) twice a day for about 17 weeks starting from the day after model production, and 10 µg was administered intraocularly (intravitreal injection, IVT) once a month. In order to evaluate the expression level of proteins in the retina, retinal tissue was separated from the extracted mouse eyes and treated with RIPA solution to extract proteins in the retina. Western blot was performed to evaluate the expression level of factors related to neovascularization and vascular permeability in the retina.

[22] = tested on: Akt; assay: as above; type: in vivo, C57BL/6 mice; settings: about 17 weeks of administration, versus STZ model group, Figure 7
Experimental: as §4

[23] = tested on: pericytes; assay: Loss of pericytes in retinal blood vessels of db/db mice (elastase digest, PAS staining); type: in vivo; settings: Figures 5 and 6
Description: In the early stage of nonproliferative diabetic retinopathy, blood flows into the tissue due to the loss of pericytes surrounding the capillaries, causing the macula to swell. Macular edema is a representative symptom of nonproliferative diabetic retinopathy in which the focus of objects becomes blurred, the field of vision darkens, and visual acuity temporarily decreases. Therefore, in order to evaluate the efficacy of the peptide of the present invention in inhibiting loss of pericytes, an experiment was performed as follows.
The drug was administered as eye drops (ED) to 12-week-old db/db mice twice a day (BID) or three times a day (TID) for about 12 weeks. In order to evaluate the state of blood vessels in the retina, the eyes of the extracted mice were fixed in 10% formalin for a week. Thereafter, the fixed eye tissue was treated with elastase to separate the retinal blood vessels and PAS staining was performed. The ratio of vascular endothelial cells and pericytes present in the blood vessel walls and the number of acellular blood vessels were quantified to evaluate the permeability of the blood vessels in the retina.

[24] = tested on: db/db mouse model; assay: Electroretinography in db/db mouse model; type: in vivo, db/db mice; settings: electroretinogram (ERG), Figure 4
Experimental: The drug was administered as eye drops (ED) to 12-week-old db/db mice twice a day (BID) or three times a day (TID) for about 12 weeks. In order to evaluate retinal function, the mice were dark-adapted for more than 12 hours before measuring electroretinogram (ERG), and then the mice were subjected to pupillary dilation and anesthetized, and electrodes were placed on the skin, tail, and cornea to measure ERG. The retina was stimulated with a single white light to obtain a response value, and the amplitude from the trough of the a wave to the peak of the b wave was measured, which was evaluated as an index of retinal function.

[25] = eye drops (ED) BID or TID for about 12 weeks, versus db/db mouse group
[26] = eye drops three times a day (TID) for about 12 weeks

Substance: [Hyp]GQE[Aib]LA [002-175]
- diameter of retinal blood vessels ([1]; 100 µg/ml, 4 days, high glucose (130 mM glucose)): decrease in the diameter of retinal blood vessels to a level similar to that of the normal group
- diameter of retinal blood vessels ([1]; 200 µg/ml, 4 days, high glucose (130 mM glucose)): decrease in the diameter of retinal blood vessels to a level similar to that of the normal group
- diameter of retinal blood vessels ([1]; treated with glucose and peptide for 4 days from 6th day after fertilization, versus high glucose (130 mM glucose) group): decrease in the diameter of retinal blood vessels
- gene expression of NF-kB [2]: decrease in the gene expression
- gene expression of MMP9 [3]: decrease in the gene expression
- gene expression of IL-1β [4]: decrease in the gene expression
- gene expression of ikkα [5]: decrease in the gene expression
- gene expression of NF-kB [6]: decrease in the gene expression
- gene expression of ikkγ [7]: decrease in the gene expression
- gene expression of ikkβ [8]: decrease in the gene expression
- gene expression of MMP9 [9]: decrease in the gene expression
- gene expression of IL-1β [10]: decrease in the gene expression
- amplitude of the a wave and the b wave [11]: increase in the amplitude of the a wave and the b wave to a level similar to that of the group administered with aflibercept
- expression of vascular endothelial growth factor (VEGF) [12]: decrease in the expression of vascular endothelial growth factor
- phosphorylation level of Akt [13]: decrease in the phosphorylation level of Akt
- phosphorylation level of JNK [14]: decrease in the phosphorylation level of JNK
- expression of COX-2 [15]: decrease in the expression of COX-2
- expression of ZO-1 [16]: increase in expression and a recovery pattern
- expression of VEGF [17]: decrease in the expression of VEGF and GFAP
- expression of GFAP [18]: decrease in the expression of VEGF and GFAP
- area of new blood vessels [19]: decrease in the area of new blood vessels to a level similar to that of the group administered with aflibercept
- TUNEL positive cells [20]: decrease in TUNEL positive cells
- expression of vascular endothelial growth factor (VEGF) [21]: decrease in the expression of vascular endothelial growth factor
- phosphorylation level of Akt [22]: decrease in the phosphorylation level of Akt
- pericytes [23, 25]: inhibition of the decrease in pericytes
- pericytes, effect of TID compared with BID [23, 26]: more excellent effect compared to the group administered twice a day (BID)
- amplitude of the a wave and the b wave [24, 25]: increase in the amplitude of the a wave and the b wave
- amplitude of the a wave and the b wave, effect of TID compared with BID [24, 26]: more excellent effect compared to the group administered twice a day (BID)
